Experimental data as given in patent publication US20230248626A1, “Compositions Comprising (Bio)-Alkanediols” (Symrise AG, priority 0001, published 2023).

Experiments:
[1] = tested on: Aspergillus brasiliensis; assay: MIC and Kull synergy index of 1,2-/2,3-alkanediol mixtures; type: cell-based; conditions: single 2,3-alkanediol, read-out: MIC Component B
[2] = tested on: Aspergillus brasiliensis (AB); assay: Preservation efficacy test (PET), European Pharmacopoeia 5.1.3; type: cell-based
Summary of the method: (§1)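 Preparations challenged with prescribed inoculums per European Pharmacopoeia 5.1.3, counting microorganisms after the prescribed time. Adequate preservation means a significant fall or no increase in counts.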

[3] = tested on: Candida albicans (CA); assay: as above; type: cell-based
Summary of the method: as §1

[4] = tested on: Escherichia coli (EC); assay: as above; type: cell-based
Summary of the method: as §1

[5] = tested on: Pseudomonas aeruginosa (PA); assay: as above; type: cell-based
Summary of the method: as §1

[6] = tested on: Staphylococcus aureus (SA); assay: as above; type: cell-based
Summary of the method: as §1

[7] = Sensory evaluation on the backside of the hand (spreading, fatty/greasy skin feel, absorption), untrained panellists; conditions: for Absorption/remaining residue with alkanediol: scale 1 to 5
Summary of the method: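 Oils blended 85:15 with heptanediol or octanediol isomers were scored against unblended oil by untrained panellists. 30 μl was applied to the back of pre-washed hands. Spreading (30 s), greasiness (2 min) and absorption were each rated on 1–5 scales.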

- MIC [1]: 2500 mg/L
- Absorption/remaining residue Delta ([7]; blend with Argan Oil vs without): 1.6
- Absorption/remaining residue with alkanediol ([7]; blend with Argan Oil): 2.2
- Absorption/remaining residue Delta ([7]; blend with Avocado Oil vs without): 1.4
- Absorption/remaining residue with alkanediol ([7]; blend with Avocado Oil): 2.4
- Absorption/remaining residue Delta ([7]; blend with Cacao butter vs without): 0.8
- Absorption/remaining residue with alkanediol ([7]; blend with Cacao butter): 2.8
- Absorption/remaining residue Delta ([7]; blend with Castor Oil vs without): 1.4
- Absorption/remaining residue with alkanediol ([7]; blend with Castor Oil): 3
- Absorption/remaining residue Delta ([7]; blend with Coconut Oil vs without): 1.2
- Absorption/remaining residue with alkanediol ([7]; blend with Coconut Oil): 2.6
- Absorption/remaining residue Delta ([7]; blend with Grapeseed Oil vs without): 0.2
- Absorption/remaining residue with alkanediol ([7]; blend with Grapeseed Oil): 2.4
- Absorption/remaining residue Delta ([7]; blend with Helianthus Annuus (Sunflower) Seed Oil vs without): 0.4
- Absorption/remaining residue with alkanediol ([7]; blend with Helianthus Annuus (Sunflower) Seed Oil): 3.4
- Absorption/remaining residue Delta ([7]; blend with Octocrylene (Neo Heliopan 303), vs without): 1.5
- Absorption/remaining residue with alkanediol ([7]; blend with Octocrylene (Neo Heliopan 303)): 2.5
- Absorption/remaining residue Delta ([7]; blend with Olive Oil vs without): 1.4
- Absorption/remaining residue with alkanediol ([7]; blend with Olive Oil): 2.6
Structure (SMILES): CCCCCC(O)C(C)O (stereo not drawn) [2,3-octanediol]
- number of microorganisms after 2 days ([2]; 0.1% in shampoo): 2,300,000
- number of microorganisms after 7 days ([2]; 0.1% in shampoo): 1,300,000
- number of microorganisms after 14 days ([2]; 0.1% in shampoo): 250,000
- number of microorganisms after 28 days ([2]; 0.1% in shampoo): 250,000
- number of microorganisms after 2 days ([2]; 0.1% in wet wipes solution): 12,000,000
- number of microorganisms after 7 days ([2]; 0.1% in wet wipes solution): 8,500,000
- number of microorganisms after 14 days ([2]; 0.1% in wet wipes solution): 9,300,000
- number of microorganisms after 28 days ([2]; 0.1% in wet wipes solution): 12,000,000
- number of microorganisms after 2 days ([2]; 0.2% in o/w emulsion): 1,700,000
- number of microorganisms after 7 days ([2]; 0.2% in o/w emulsion): 2,000,000
- number of microorganisms after 14 days ([2]; 0.2% in o/w emulsion): 2,100,000
- number of microorganisms after 28 days ([2]; 0.2% in o/w emulsion): 2,000,000
- number of microorganisms after 2 days ([2]; 0.4% in shampoo): 1,100,000
- number of microorganisms after 7 days ([2]; 0.4% in shampoo): 1,100,000
- number of microorganisms after 14 days ([2]; 0.4% in shampoo): 2,100,000
- number of microorganisms after 28 days ([2]; 0.4% in shampoo): 410,000
- number of microorganisms after 2 days ([3]; 0.1% in shampoo): 200,000
- number of microorganisms after 7 days ([3]; 0.1% in shampoo): 19,000
- number of microorganisms after 14 days ([3]; 0.1% in shampoo): 390
- number of microorganisms after 28 days ([3]; 0.1% in shampoo): 1
- number of microorganisms after 2 days ([3]; 0.1% in wet wipes solution): 5,000,000
- number of microorganisms after 7 days ([3]; 0.1% in wet wipes solution): 2,400,000
- number of microorganisms after 14 days ([3]; 0.1% in wet wipes solution): 6,900,000
- number of microorganisms after 28 days ([3]; 0.1% in wet wipes solution): 5,500,000
- number of microorganisms after 2 days ([3]; 0.2% in o/w emulsion): 2,000,000
- number of microorganisms after 7 days ([3]; 0.2% in o/w emulsion): 1,800,000
- number of microorganisms after 14 days ([3]; 0.2% in o/w emulsion): 1,900,000
- number of microorganisms after 28 days ([3]; 0.2% in o/w emulsion): 390,000
- number of microorganisms after 2 days ([3]; 0.4% in shampoo): 44,000
- number of microorganisms after 7 days ([3]; 0.4% in shampoo): 17,000
- number of microorganisms after 14 days ([3]; 0.4% in shampoo): 510
- number of microorganisms after 28 days ([3]; 0.4% in shampoo): 1
- number of microorganisms after 2 days ([4]; 0.1% in shampoo): 2,600,000
- number of microorganisms after 7 days ([4]; 0.1% in shampoo): 3,800,000
- number of microorganisms after 14 days ([4]; 0.1% in shampoo): 1,500,000
- number of microorganisms after 28 days ([4]; 0.1% in shampoo): 1,300,000
- number of microorganisms after 2 days ([4]; 0.1% in wet wipes solution): 1,300,000
- number of microorganisms after 7 days ([4]; 0.1% in wet wipes solution): 2,600,000
- number of microorganisms after 14 days ([4]; 0.1% in wet wipes solution): 850,000
- number of microorganisms after 28 days ([4]; 0.1% in wet wipes solution): 1,600
- number of microorganisms after 2 days ([4]; 0.2% in o/w emulsion): 48,000
- number of microorganisms after 7 days ([4]; 0.2% in o/w emulsion): 290
- number of microorganisms after 14 days ([4]; 0.2% in o/w emulsion): 1
- number of microorganisms after 28 days ([4]; 0.2% in o/w emulsion): 1
- number of microorganisms after 2 days ([4]; 0.4% in shampoo): 1,100,000
- number of microorganisms after 7 days ([4]; 0.4% in shampoo): 1,900,000
- number of microorganisms after 14 days ([4]; 0.4% in shampoo): 2,100,000
- number of microorganisms after 28 days ([4]; 0.4% in shampoo): 600,000
- number of microorganisms after 2 days ([5]; 0.1% in shampoo): 280,000
- number of microorganisms after 7 days ([5]; 0.1% in shampoo): 3,700,000
- number of microorganisms after 14 days ([5]; 0.1% in shampoo): 13,000,000
- number of microorganisms after 28 days ([5]; 0.1% in shampoo): 8,100,000
- number of microorganisms after 2 days ([5]; 0.1% in wet wipes solution): 1,300,000
- number of microorganisms after 7 days ([5]; 0.1% in wet wipes solution): 630,000
- number of microorganisms after 14 days ([5]; 0.1% in wet wipes solution): 310,000
- number of microorganisms after 28 days ([5]; 0.1% in wet wipes solution): 27,000
- number of microorganisms after 2 days ([5]; 0.2% in o/w emulsion): 1
- number of microorganisms after 7 days ([5]; 0.2% in o/w emulsion): 1
- number of microorganisms after 14 days ([5]; 0.2% in o/w emulsion): 1
- number of microorganisms after 28 days ([5]; 0.2% in o/w emulsion): 1
- number of microorganisms after 2 days ([5]; 0.4% in shampoo): 21,000
- number of microorganisms after 7 days ([5]; 0.4% in shampoo): 1
- number of microorganisms after 14 days ([5]; 0.4% in shampoo): 1
- number of microorganisms after 28 days ([5]; 0.4% in shampoo): 1
- number of microorganisms after 2 days ([6]; 0.1% in shampoo): 2,000
- number of microorganisms after 7 days ([6]; 0.1% in shampoo): 1
- number of microorganisms after 14 days ([6]; 0.1% in shampoo): 1
- number of microorganisms after 28 days ([6]; 0.1% in shampoo): 1
- number of microorganisms after 2 days ([6]; 0.1% in wet wipes solution): 50
- number of microorganisms after 7 days ([6]; 0.1% in wet wipes solution): 50
- number of microorganisms after 14 days ([6]; 0.1% in wet wipes solution): 50
- number of microorganisms after 28 days ([6]; 0.1% in wet wipes solution): 50
- number of microorganisms after 2 days ([6]; 0.2% in o/w emulsion): 1,300,000
- number of microorganisms after 7 days ([6]; 0.2% in o/w emulsion): 84,000
- number of microorganisms after 14 days ([6]; 0.2% in o/w emulsion): 1
- number of microorganisms after 28 days ([6]; 0.2% in o/w emulsion): 1
- number of microorganisms after 2 days ([6]; 0.4% in shampoo): 4,000
- number of microorganisms after 7 days ([6]; 0.4% in shampoo): 1
- number of microorganisms after 14 days ([6]; 0.4% in shampoo): 1
- number of microorganisms after 28 days ([6]; 0.4% in shampoo): 1
